Data on 9 compounds can be found in patent USRE28819E, “Dialkylated glycol compositions and medicament preparations containing same” (Syntex (U.S.A.) Inc., priority 1975, dated 1976).

Converted amounts (≈) assume the structure as drawn. Structures can show the parent of a compound that is named as a salt.

Series [1] is described as follows: physchem. The note with it: polyethylene glycol-550-dimethyl ether, organic solvent or mixture.
The nature of series [2]: solubility of medicament in polyethylene glycol-550-dimethyl ether at 30°C.
Series [3] can be described thus: storage stability of PGE2 formulations (percent activity, t90). It counts as physicochemical. To be noted: PGE2, conclusion from Examples XV-XXIX. Here is the method:
A formulation is prepared having 1 mg. PGE2 per ml. 1,2-dimethoxyethane. After 12 days storage at 60°C. under a nitrogen atmosphere, the PGE2 assays 100% of the activity at time zero.
A formulation is prepared having 1 mg. PGE2 per ml. of triethylene glycol-dimethyl ether. After 5 days storage at 60°C. under a nitrogen atmosphere, the PGE2 assays 100% of the activity at time zero.
The following formulations are prepared having 1 mg. PGE2 per ml. of polyethylene glycol-550-dimethyl ether, and the additional material(s) as set forth below. The percent activity of the PGE2 after storage for 7 days at 80°C. is also given.
A formulation is prepared having 1 mg. PGE2, 0.01% edetic acid, 0.01% BHA and 0.01% BHT per ml. polyethylene glycol-550-dimethyl ether, and sealed in an ampule under nitrogen atmosphere. After 18 days storage at 80°C., the PGE2 assays 100% of the activity at time zero.
The following formulations are prepared having 1 mg. PGE2 per ml. polyethylene glycol-550 -dimethyl ether, and the additional material(s) as set forth below, and the sealed in individual ampules under nitrogen atmosphere. The time (t90) for 10% of the PGE2 to decompose when stored at 80°C. is given. Also given is the corresponding t90 for a formulation having 1 mg. PGE2 per ml. polyethylene glycol-400, also sealed under nitrogen atmosphere.
By comparison, 1 mg. […]

For series [4] the following is noted: literature (Brummer; Karim et al); cited from earlier work.
The nature of series [5]: decomposition of aspirin vs. time in formulation stored at 80°C. To be noted: conclusion from Examples XV-XXIX. Type of series: physicochemical. Here is the method: A formulation is prepared having 0.5 g. aspirin per 1.0g. polyethylene glycol- 750-dimethyl ether, and stored at 80°C. Decomposition of the aspirin is measured vs. time. The time for 10% decomposition is 27 hours. This reflects approximately a 30 month shelf-life at 25°C. This can be compared to a published report [Jun et al, J. Pharm. Sec.

The mark [6] stands for this setting: polyethylene glycol-550-dimethyl ether, organic solvent or mixture.

As to `CC(=O)[C@@]12OC(C)(C)O[C@@H]1C[C@H]1[C@@H]3C[C@H](F)C4=CC(=O)C=C[C@]4(C)[C@@]3(F)[C@@H](O)C[C@@]12C` [6α,9α-difluoro-11β-hydroxy-16α,17α-isopropylidenedioxy-pregna-1,4-diene-3,20-dione], the solubility in series [1] is 6500 µg/mL (≈ 14.9 mM).

Regarding `CC1(C)O[C@@H]2C[C@H]3[C@@H]4C[C@H](F)C5=CC(=O)C=C[C@]5(C)[C@@]4(Cl)[C@@H](Cl)C[C@]3(C)[C@]2(C(=O)CCl)O1` [9α,11β,21-trichloro-6α-fluoro-16α,17α-isopropylidenedioxy-pregna-1,4-diene-3,20-dione], the solubility in series [1] turned out to be 1500 µg/mL (≈ 2.97 mM).

In the case of `CCCCCCCCCCCCCCCC(=O)N(CCO)CCO` [N,N-bis(2-hydroxyethyl)-palmitamide], the solubility in series [2] (setting [6]) was 2700 µg/mL (≈ 7.86 mM).

On to `CCCCC[C@H](O)/C=C/[C@H]1[C@H](O)CC(=O)[C@@H]1C/C=C\CCCC(=O)O` [PGE2, 11α,15α-dihydroxy-9-keto-5,13-prostadienoic acid], for which the “chemical potency in the dialkylated glycol vehicle” value in series [3] is “stabilizes, for extended periods of time, the chemical potency”. Moreover, the chemical stability result in series [4] is listed as “relatively unstable”. Further, the solubility in series [2] (setting [6]) stood at 2000 µg/mL (≈ 5.67 mM).

For `CCCCC[C@H](O)/C=C/[C@@H]1[C@@H](C/C=C\CCCC(=O)O)[C@@H](O)C[C@H]1O` [PGF2α, 9α,11α,15α-trihydroxy-5,13-prostadienoic acid], in series [1], the solubility was determined as 36000 µg/mL (≈ 102 mM).

With `CC(=O)Oc1ccccc1C(=O)O` [aspirin, acetylsalicylic acid], in series [2] (setting [6]), the solubility worked out at 120000 µg/mL (≈ 666 mM). For the same compound, the “chemical potency in the dialkylated glycol vehicle” value in series [5] was “stabilizes, for extended periods of time, the chemical potency”.

For the compound `CCOC(=O)c1ccc(N)cc1` [benzocaine], the solubility in series [2] (setting [6]) was found to be 111000 µg/mL (≈ 672 mM).

On to `CN(C)C1C(=O)C(C(N)=O)=C(O)C2(O)C(=O)C3=C(O)c4c(O)cccc4C(C)(O)C3C(O)C12` (stereo not drawn) [oxytetracycline hydrochloride], for which the solubility in series [1] stood at 340 µg/mL.

On to gramicidin, for which the solubility in series [2] (in polyethylene glycol-550-dimethyl ether, 30°C) is 4400 µg/mL.
